Results as given in BindingDB's records for doi:10.1021/jm0704550 (Cnrs, 2007).
One block for each compound: values may come before it.

Molecular target: Growth hormone secretagogue receptor type 1 (Homo sapiens, UniProt Q92847)
Assay: Receptor Binding Studies

Sequence of Growth hormone secretagogue receptor type 1 (Q92847 whole entry): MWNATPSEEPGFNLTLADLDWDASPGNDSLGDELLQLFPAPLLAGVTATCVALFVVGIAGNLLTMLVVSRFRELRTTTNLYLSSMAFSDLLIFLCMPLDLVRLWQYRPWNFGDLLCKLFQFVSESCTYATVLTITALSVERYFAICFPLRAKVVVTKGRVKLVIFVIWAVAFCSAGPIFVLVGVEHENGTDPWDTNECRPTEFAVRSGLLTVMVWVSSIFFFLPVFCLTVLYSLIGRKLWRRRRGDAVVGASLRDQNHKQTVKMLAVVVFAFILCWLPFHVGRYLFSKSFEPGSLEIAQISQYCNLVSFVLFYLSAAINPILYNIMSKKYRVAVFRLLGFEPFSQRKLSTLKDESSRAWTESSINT

Compound: COc1ccc(-n2c(CCc3ccccc3)nnc2[C@@H](Cc2c[nH]c3ccccc23)NC(=O)C2CCNCC2)c(OC)c1 [N-[(1R)-1-[4-(2,4-dimethoxyphenyl)-5-(2-phenylethyl)-4H-1,2,4-triazol-3-yl]-2-(1H-indol-3-yl)ethyl]piperidine-4-carboxamide]
EC50: 14 nM

Compound: COc1ccc(Cn2c(CCc3ccccc3)nnc2[C@@H](Cc2c[nH]c3ccccc23)NC(=O)[C@H]2CCCN2)cc1 [(2R)-N-[(1R)-2-(1H-indol-3-yl)-1-{4-[(4-methoxyphenyl)methyl]-5-(2-phenylethyl)-4H-1,2,4-triazol-3-yl}ethyl]pyrrolidine-2-carboxamide]
IC50 (pH 7.3, 25 °C): 32 nM | Kb (pH 7.3, 25 °C): 8 nM

Compound: CCc1ccc(Cn2c(CCc3ccccc3)nnc2[C@@H](Cc2c[nH]c3ccccc23)NC(=O)[C@H](C)N)cc1 [(2S)-2-amino-N-[(1R)-1-{4-[(4-ethylphenyl)methyl]-5-(2-phenylethyl)-4H-1,2,4-triazol-3-yl}-2-(1H-indol-3-yl)ethyl]propanamide]
IC50 (pH 7.3, 25 °C): 275 nM

Compound: COc1ccc(Cn2c(CCc3c[nH]c4ccccc34)nnc2[C@@H](Cc2c[nH]c3ccccc23)NC(=O)C(C)(C)N)cc1
Kb (pH 7.3, 25 °C): 4 nM

Compound: COc1ccc(Cn2c(CCc3ccccc3)nnc2[C@@H](Cc2c[nH]c3ccccc23)NC(=O)[C@H]2CCCNC2)cc1 [(3S)-N-[(1R)-2-(1H-indol-3-yl)-1-{4-[(4-methoxyphenyl)methyl]-5-(2-phenylethyl)-4H-1,2,4-triazol-3-yl}ethyl]piperidine-3-carboxamide]
Kb (pH 7.3, 25 °C): 10 nM

Results, then the compound that gave them:

EC50: 12 nM
Compound: COc1ccc(Cn2c(CCc3ccccc3)nnc2[C@@H](Cc2c[nH]c3ccccc23)NC(=O)C2CNCCN2)cc1 (stereo partly drawn) [N-[(1R)-2-(1H-indol-3-yl)-1-{4-[(4-methoxyphenyl)methyl]-5-(2-phenylethyl)-4H-1,2,4-triazol-3-yl}ethyl]piperazine-2-carboxamide]

EC50: 143 nM | IC50: 178 nM
Compound: CCc1ccc(Cn2c(CCc3ccccc3)nnc2[C@@H](Cc2c[nH]c3ccccc23)NC(=O)C2CNCCN2)cc1 (stereo partly drawn) [N-[(1R)-1-{4-[(4-ethylphenyl)methyl]-5-(2-phenylethyl)-4H-1,2,4-triazol-3-yl}-2-(1H-indol-3-yl)ethyl]piperazine-2-carboxamide]

EC50: 1.6 nM
Compound: COc1ccc(Cn2c(CCc3ccccc3)nnc2[C@@H](Cc2c[nH]c3ccccc23)NC(=O)C2CCNCC2)cc1 [N-[(1R)-2-(1H-indol-3-yl)-1-{4-[(4-methoxyphenyl)methyl]-5-(2-phenylethyl)-4H-1,2,4-triazol-3-yl}ethyl]piperidine-4-carboxamide]

EC50: 19.6 nM
Compound: COc1ccc(Cn2c(CCc3ccccc3)nnc2[C@@H](Cc2c[nH]c3ccccc23)NC(=O)C2CNCCN2)c(OC)c1 (stereo partly drawn) [N-[(1R)-1-{4-[(2,4-dimethoxyphenyl)methyl]-5-(2-phenylethyl)-4H-1,2,4-triazol-3-yl}-2-(1H-indol-3-yl)ethyl]piperazine-2-carboxamide]

EC50: 390 nM
Compound: COc1ccc(Cn2c(CCc3ccccc3)nnc2[C@@H](Cc2c[nH]c3ccccc23)NC(=O)C2CCCCC2)cc1 [N-[(1R)-2-(1H-indol-3-yl)-1-{4-[(4-methoxyphenyl)methyl]-5-(2-phenylethyl)-4H-1,2,4-triazol-3-yl}ethyl]cyclohexanecarboxamide]

Kb: 18 nM
Compound: COc1ccc(Cn2c(CCc3c[nH]c4ccccc34)nnc2[C@@H](Cc2c[nH]c3ccccc23)NC(=O)C2CCCCN2)c(OC)c1 (stereo partly drawn) [N-[(1R)-1-{4-[(2,4-dimethoxyphenyl)methyl]-5-[2-(1H-indol-3-yl)ethyl]-4H-1,2,4-triazol-3-yl}-2-(1H-indol-3-yl)ethyl]piperidine-2-carboxamide]
